Measured values from patent US20220144839A1, “INDOLE AHR INHIBITORS AND USES THEREOF” (Ikena Oncology, Inc., priority 2018, published 2022).

Target: T1, AHR (UniProt P35869)
T1 sequence (P35869 1-848): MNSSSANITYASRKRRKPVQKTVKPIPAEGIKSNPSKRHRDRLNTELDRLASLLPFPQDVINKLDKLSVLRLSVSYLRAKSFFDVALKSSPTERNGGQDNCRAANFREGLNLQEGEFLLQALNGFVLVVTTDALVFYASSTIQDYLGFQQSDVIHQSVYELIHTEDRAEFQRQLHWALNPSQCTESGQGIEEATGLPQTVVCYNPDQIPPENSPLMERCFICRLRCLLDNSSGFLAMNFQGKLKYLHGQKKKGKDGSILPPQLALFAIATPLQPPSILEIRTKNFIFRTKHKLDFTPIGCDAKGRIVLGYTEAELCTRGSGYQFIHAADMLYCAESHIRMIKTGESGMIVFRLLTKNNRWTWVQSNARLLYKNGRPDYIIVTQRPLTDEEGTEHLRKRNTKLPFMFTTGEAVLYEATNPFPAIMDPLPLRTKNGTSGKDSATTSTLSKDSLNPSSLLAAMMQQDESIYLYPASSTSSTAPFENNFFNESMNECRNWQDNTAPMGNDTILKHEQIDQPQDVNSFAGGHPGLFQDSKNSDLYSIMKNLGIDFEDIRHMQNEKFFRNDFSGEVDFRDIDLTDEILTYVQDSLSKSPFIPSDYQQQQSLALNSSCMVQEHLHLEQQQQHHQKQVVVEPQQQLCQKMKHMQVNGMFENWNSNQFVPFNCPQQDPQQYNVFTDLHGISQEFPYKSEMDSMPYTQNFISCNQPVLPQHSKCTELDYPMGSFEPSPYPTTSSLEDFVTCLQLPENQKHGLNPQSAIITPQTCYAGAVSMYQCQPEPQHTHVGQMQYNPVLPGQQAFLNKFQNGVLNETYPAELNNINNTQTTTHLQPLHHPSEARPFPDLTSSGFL
Experiment: DRE-Luciferase Reporter Assay (Alternate Method), Example 1B
Type: cell-based
Conditions: concentration which inhibits half of the luciferase activity induced by AHR activating ligand; DRE-luciferase reporter cell line
Description: AHR binds to Dioxin Responsive Elements (DRE) upstream of genes that it activates. One measure of AHR activity is activation of a reporter gene, such as luciferase, downstream of one or multiple DRE elements. Luciferase activity will reflect activation and inhibition of AHR in the cells expressing his reporter.
Murine Hepa1-6 or Hepa-1c1c7 or other murine cell line with a DRE-luciferase reporter either stably or transiently transfected were plated in media in plates (96-well, 384-well or other plates) and incubated overnight at 37° C. in a C02 incubator or compound and agonist were added at the time of plating. Likewise, human HepG2 or other human cell line with a DRE-luciferase reporter either stably or transiently transfected were plated in media in plates (96-well, 384-well or other plates) and incubated overnight at 37° C. in a C02 incubator or compound and agonist were added at the time of plating.
At the time that cells are plated or following incubation overnight, an AHR activating ligand, such as TCDD, kynurenine, ITE (2-(1H-indole-3-ylcarbonyl)-4-thiazolecarboxylic methyl ester), VAF347, BNF (beta-naphthoflavone), FICZ (6-formylindolo(3,2-b) carbazole or other AHR ligands, was added with or without AHR antagonist.
Cells were incubated for 4, 15 or 24 hours or another time point and then lysed for determination of luciferase activity as a read-out of the AHR activation or inhibition. Luciferase was measured with a commercial kit such as the Promega Luciferase kit or any kit or reagents that provide the luciferin substrate for measuring luciferase activity. The level of luciferase with only activating ligand added was the maximum signal while the luciferase with no ligand was the minimum signal. IC50 values were determined as the concentration which inhibits half of the luciferase activity.

Row | IC50 [µM] | Structure (SMILES)
1 | 1 to 1.5 | CC(C)c1cnn2c(N[C@@H]3CNc4ccccc4C3)nc(-c3cncc(F)c3)nc12 [Compound I-35a, (3S)—N-[2-(5-Fluoro-3-pyridyl)-8-isopropyl-pyrazolo[1,5-a][1,3,5]triazin-4-yl]-1,2,3,4-tetrahydroquinolin-3-amine]
2 | < 0.5 | Fc1cncc(-c2nc(N[C@@H]3CCc4[nH]c5ccccc5c4C3)n3ncc(N4CCOCC4)c3n2)c1 [Compound I-38, (3R)—N-[2-(5-Fluoro-3-pyridyl)-8-morpholino-pyrazolo[1,5-a][1,3,5]triazin-4-yl]-2,3,4,9-tetrahydro-1H-carbazol-3-amine]
3 | 1 to 1.5 | C[C@H](NCC1CC1)c1cnn2c(N[C@@H]3CCc4[nH]c5ccccc5c4C3)nc(-c3cncc(F)c3)nc12 [Compound I-20a, (3R)—N-[8-[(1S)-1-(Cyclopropylmethylamino)ethyl]-2-(5-fluoro-3-pyridyl)pyrazolo[1,5-a][1,3,5]triazin-4-yl]-2,3,4,9-tetrahydro-1H-carbazol-3-amine]
4 | 0.5 to 1 | Fc1cncc(-c2nc(N[C@@H]3CCc4[nH]c5ccccc5c4C3)n3nc4c(c3n2)CCCC4)c1 [Compound I-30, 2-(5-fluoro-3-pyridyl)-N-[(3R)-2,3,4,9-tetrahydro-1H-carbazol-3-yl]-7,8,9,10-tetrahydro-[1,3,5]triazino[1,2-b]indazol-4-amine]
5 | > 1.5 | CC(C)c1cnn2c(N[C@H]3CCc4c(cc[nH]c4=O)C3)nc(-c3cncc(F)c3)nc12 [Compound I-66b, (6S)-6-[[2-(5-fluoro-3-pyridyl)-8-isopropyl-pyrazolo[1,5-a][1,3,5]triazin-4-yl]amino]-5,6,7,8-tetrahydro-2H-isoquinolin-1-one]
6 | > 1.5 | CC(CO)CNc1nc(-c2cncc(F)c2)nc2c(C(C)C)cnn12 (stereo not shown) [Compound I-49, 3-[[2-(5-Fluoro-3-pyridyl)-8-isopropyl-pyrazolo[1,5-a][1,3,5]triazin-4-yl]amino]-2-methyl-propan-1-ol]
7 | < 0.5 | COCC[C@@H](C)c1cnn2c(N[C@@H]3CCc4[nH]c5ccccc5c4C3)nc(-c3cncc(F)c3)nc12 [Compound I-65b, (3R)—N-[2-(5-fluoro-3-pyridyl)-8-[(1R)-3-methoxy-1-methyl-propyl]pyrazolo[1,5-a][1,3,5]triazin-4-yl]-2,3,4,9-tetrahydro-1H-carbazol-3-amine]
8 | < 0.5 | O[C@@H](c1cnn2c(N[C@@H]3CCc4[nH]c5ccccc5c4C3)nc(-c3cncc(F)c3)nc12)C(F)(F)F [Compound I-41b, (1S)-2,2,2-trifluoro-1-[2-(5-fluoro-3-pyridyl)-4-[[(3R)-2,3,4,9-tetrahydro-1H-carbazol-3-yl]amino]pyrazolo[1,5-a][1,3,5]triazin-8-yl]ethanol]
9 | > 1.5 | COc1cncc(-c2nc(N[C@@H]3CCc4[nH]c5ccccc5c4C3)n3ncc(C(C)C)c3n2)c1 [Compound I-3, (3R)—N-[8-Isopropyl-2-(5-methoxy-3-pyridyl)pyrazolo[1,5-a][1,3,5]triazin-4-yl]-2,3,4,9-tetrahydro-1H-carbazol-3-amine]
10 | < 0.5 | C[C@H](CO)c1cnn2c(N[C@@H]3CCc4[nH]c5ccccc5c4C3)nc(-c3cncc(F)c3)nc12 [Compound I-25b, (2S)-2-[2-(5-Fluoro-3-pyridyl)-4-[[(3R)-2,3,4,9-tetrahydro-1H-carbazol-3-yl]amino]pyrazolo[1,5-a][1,3,5]triazin-8-yl]propan-1-ol]
11 | 0.5 to 1 | CC(C)c1cnn2c(N[C@@H]3CNc4ncccc4C3)nc(-c3cncc(F)c3)nc12 [Compound I-37a, (3S)—N-[2-(5-Fluoro-3-pyridyl)-8-isopropyl-pyrazolo[1,5-a][1,3,5]triazin-4-yl]-1,2,3,4-tetrahydro-1,8-naphthyridin-3-amine]
12 | < 0.5 | COC[C@@H](C)c1cnn2c(N[C@@H]3CCc4[nH]c5ccccc5c4C3)nc(-c3cncc(F)c3)nc12 [Compound I-64b, (3R)—N-[2-(5-fluoro-3-pyridyl)-8-[(1S)-2-methoxy-1-methyl-ethyl]pyrazolo[1,5-a][1,3,5]triazin-4-yl]-2,3,4,9-tetrahydro-1H-carbazol-3-amine]
13 | > 1.5 | CC(C)c1cnn2c(N[C@@H]3CCc4ccccc4C3)nc(-c3cncc(F)c3)nc12 [Compound I-48a, 2-(5-Fluoro-3-pyridyl)-8-isopropyl-N-[(2R)-tetralin-2-yl]pyrazolo[1,5-a][1,3,5]triazin-4-amine]
14 | 1 to 1.5 | Cc1cnc2c(N[C@@H]3CCc4[nH]c5ccccc5c4C3)nc(-c3cncc(F)c3)nc2c1 [Compound I-14, (3R)—N-[2-(5-fluoro-3-pyridyl)-7-methyl-pyrido[3,2-d]pyrimidin-4-yl]-2,3,4,9-tetrahydro-1H-carbazol-3-amine]
15 | > 1.5 | CC(C)c1cnn2c(N[C@H]3CNc4ncncc4C3)nc(-c3cncc(F)c3)nc12 [Compound I-60a, (6R)—N-[2-(5-Fluoro-3-pyridyl)-8-isopropyl-pyrazolo[1,5-a][1,3,5]triazin-4-yl]-5,6,7,8-tetrahydropyrido[2,3-d]pyrimidin-6-amine]
16 | < 0.5 | C[C@@H](O)c1cnc2c(N[C@@H]3CCc4[nH]c5ccccc5c4C3)nc(-c3cncc(F)c3)nn12 [Compound I-42b, (1R)-1-[2-(5-Fluoro-3-pyridyl)-4-[[(3R)-2,3,4,9-tetrahydro-1H-carbazol-3-yl]amino]imidazo[2,1-f][1,2,4]triazin-7-yl]ethanol]
17 | < 0.5 | O[C@H](c1cnn2c(N[C@@H]3CCc4[nH]c5ccccc5c4C3)nc(-c3cncc(F)c3)nc12)C(F)(F)F [Compound I-41a, (1R)-2,2,2-Trifluoro-1-[2-(5-fluoro-3-pyridyl)-4-[[(3R)-2,3,4,9-tetrahydro-1H-carbazol-3-yl]amino]pyrazolo[1,5-a][1,3,5]triazin-8-yl]ethanol]
18 | > 1.5 | CC(C)c1cnn2c(N[C@@H]3Cc4cncnc4NC3=O)nc(-c3cncc(F)c3)nc12 [Compound I-55b, (6R)-6-[[2-(5-fluoro-3-pyridyl)-8-isopropyl-pyrazolo[1,5-a][1,3,5]triazin-4-yl]amino]-6,8-dihydro-5H-pyrido[2,3-d]pyrimidin-7-one]
19 | < 0.5 | CC(C)(O)c1cnn2c(N[C@@H]3CCc4[nH]c5ccccc5c4C3)nc(-c3cncc(F)c3)nc12 [Compound I-9, 2-[2-(5-Fluoro-3-pyridyl)-4-[[(3R)-2,3,4,9-tetrahydro-1H-carbazol-3-yl]amino]pyrazolo[1,5-a][1,3,5]triazin-8-yl]propan-2-ol]
20 | < 0.5 | C[C@H](N)c1cnn2c(N[C@@H]3CCc4[nH]c5ccccc5c4C3)nc(-c3cncc(F)c3)nc12 [Compound I-32a, (3R)—N-[8-[(1S)-1-Aminoethyl]-2-(5-fluoro-3-pyridyl)pyrazolo[1,5-a][1,3,5]triazin-4-yl]-2,3,4,9-tetrahydro-1H-carbazol-3-amine]
21 | > 1.5 | CC(C)c1cnn2c(N[C@@H]3CCc4[nH]c5ccccc5c4C3)nc(-n3cncn3)nc12 [Compound I-16, (3R)—N-[8-Isopropyl-2-(1,2,4-triazol-1-yl)pyrazolo[1,5-a][1,3,5]triazin-4-yl]-2,3,4,9-tetrahydro-1H-carbazol-3-amine]
22 | < 0.5 | Fc1cncc(-c2nc(N[C@@H]3CCc4[nH]c5ccccc5c4C3)n3ncc(-c4cnn[nH]4)c3n2)c1 [Compound I-10, (3R)—N-[2-(5-Fluoro-3-pyridyl)-8-(1H-triazol-5-yl)pyrazolo[1,5-a][1,3,5]triazin-4-yl]-2,3,4,9-tetrahydro-1H-carbazol-3-amine]
